Converted amounts (≈) assume the structure as drawn.

For data set [1], the system named is HL-60. As to the kind of experiment: Cytotoxicity against HL60 cells after 72 hrs by MTT assay. It counts as cell-based, Homo sapiens.
The test system of data set [2] is P388. As to the kind of experiment: Cytotoxicity against P388 cells after 72 hrs by MTT assay. It counts as cell-based, Mus musculus. The conditions noted are these: for IC50: Mus musculus, P388, 72 h.
Data set [3] can be described thus: Cytotoxicity against BEL-7402 cells after 72 hrs by MTT assay. It counts as cell-based, Homo sapiens.
Data set [4] concerns A549. Description: Cytotoxicity against A549 cells after 72 hrs by MTT assay. The conditions noted are these: human, a549, 72 h. It counts as cell-based.

For the compound `CC(C)C[C@]1(O)NC(=O)[C@H](CCC(N)=O)n2c1nc1ccccc1c2=O` [AURANTIOMIDE B], the IC50 in data set [1] (Homo sapiens, HL-60, 72 h) was found to be 52 µg/mL (≈ 145 µM); in data set [2], 54 µg/mL (≈ 151 µM).
Regarding `CO[C@@]1(CC(C)C)NC(=O)[C@H](CCC(N)=O)n2c1nc1ccccc1c2=O` [AURANTIOMIDE A], the Activity result in data set [1] (human, hl-60, 72 h) is recorded as “Not Active”; in data set [2] (mouse, p388, 72 h), “Not Active”; in data set [3] (human, bel-7402, 72 h), “Not Active”; in data set [4] it was “Not Active”.
Turning to `CC(C)/C=C1\NC(=O)[C@H](CCC(N)=O)n2c1nc1ccccc1c2=O` [AURANTIOMIDE C], the IC50 turned out to be 48 µg/mL (≈ 141 µM) in data set [2] and 48 µg/mL (≈ 141 µM) in data set [3] (Homo sapiens, Bel-7402, 72 h).

The values are drawn from ChEMBL document CHEMBL1139882, “Aurantiomides A-C, quinazoline alkaloids from the sponge-derived fungus Penicillium aurantiogriseum SP0-19” (J Nat Prod, 2007).
